Test results reported in patent US7098227B2, “Disubstituted thiazolyl carboxanilides and their use as microbicides” (Bayer Cropscience AG, priority 2002, dated 2006).

Experiments:
[1] = logP determination by HPLC on reverse-phase column (C 18), EEC Directive 79/831 Annex V.A8; format: physicochemical; conditions: 43° C.; for chromatographic logP: reverse-phase HPLC column (C 18), pH 2.3, pH 2.3, 0.1% aqueous phosphoric acid/acetonitrile gradient
Procedure: The logP values given in the tables and Preparation Examples above are determined in accordance with EEC Directive 79/831 Annex V.A8 by HPLC (High Performance Liquid Chromatography) on a reverse-phase column (C 18). Temperature: 43° C. The determination is carried out in the acidic range at pH 2.3 using the mobile phases 0.1% aqueous phosphoric acid and acetonitrile; linear gradient from 10% acetonitrile to 90% acetonitrile. Calibration is carried out using unbranched alkan-2-ones (of 3 to 16 carbon atoms), with known logP values (determination of the logP values by the retention times using linear interpolation between two successive […]).

Sphaerotheca fuliginea = assay: Sphaerotheca Test (Cucumber)/Protective; format: in vivo; conditions: Podosphaera fuliginea, 168 h, application rate 10 g/ha, protective spray, evaluation 7 days after inoculation, 100% = no infection, read-out: % Efficacy
Procedure: Sphaerotheca Test (Cucumber)/Protective [table] To produce a suitable preparation of active compound, 1 part by weight of active compound is mixed with the stated amounts of solvent and emulsifier, and the concentrate is diluted with water to the desired concentration. To test for protective effectivity, the young plants are sprayed with the preparation of active compound at the stated application rate. After the spray coating has dried on, the plants are inoculated with an aqueous spore suspension of Sphaerotheca fuliginea. The plants are then placed in a greenhouse at about 23° C. and a relative atmospheric humidity of about 70%. Evaluation is carried out 7 days after the inoculation. 0% means an efficacy which corresponds to that of the control, whereas an efficacy of 100% means that no infection is observed.

Botrytis cinerea = assay: Botrytis Test (Bean)/Protective; format: in vivo; conditions: 48 h, application rate 100 g/ha, protective spray, evaluation 2 days after inoculation, 100% = no infection, read-out: % Efficacy
Procedure: Botrytis Test (Bean)/Protective [table] To produce a suitable preparation of active compound, 1 part by weight of active compound is mixed with the stated amounts of solvent and emulsifier, and the concentrate is diluted with water to the desired concentration. To test for protective activity, young plants are sprayed with the preparation of active compound at the stated application rate. After the spray coating has dried on, 2 small pieces of agar colonised by Botrytis cinerea are placed onto each leaf. The inoculated plants are then placed in a dark chamber at about 20° C. and 100% relative atmospheric humidity. 2 days after the inoculation, the size of the infected areas on the leaves is evaluated. 0% means an efficacy which corresponds to that of the control, whereas an efficacy of 100% means that no infection is observed.

Venturia inaequalis = assay: Venturia Test (Apple)/Protective; format: in vivo; conditions: 240 h, application rate 10 g/ha, protective spray, evaluation 10 days after inoculation, 100% = no infection, read-out: % Efficacy
Procedure: Venturia Test (Apple)/Protective [table] To produce a suitable preparation of active compound, 1 part by weight of active compound is mixed with the stated amounts of solvent and the emulsifier, and the concentrate is diluted with water to the desired concentration. To test for protective activity, young plants are sprayed with the preparation of active compound at the stated application rate. After the spray coating has dried on, the plants are inoculated with an aqueous conidia suspension of the apple scab pathogen Venturia inaequalis and then remain in an incubation cabin at about 20° C. and 100% relative atmospheric humidity for 1 day. The plants are then placed in a greenhouse at about 21° C. and a relative atmospheric humidity of about 90%. Evaluation is carried out 10 days after the inoculation. 0% means an efficacy which corresponds to that of the control, whereas an efficacy of 100% means that no infection is observed.

Rhizoctonia solani = assay: In vitro Test for the ED50 Determination in Microorganisms; format: cell-based; conditions: 50% inhibition of fungal growth, tested at 0.1, 1, 10 and 100 ppm, 22° C., 3–5 days, photometric 620 nm
Procedure: (§1) In vitro Test for the ED50 Determination in Microorganisms A methanolic solution of the active compound to be tested, mixed with the emulsifier PS16, is pipetted into the wells of microtitre plates. After the solvent has evaporated, 200 μl of potato/dextrose medium are added to each well. Beforehand, a suitable concentration of spores or mycelium of the fungus to be tested was added to the medium. The resulting concentrations of the active compound are 0.1, 1, 10 and 100 ppm. The resulting concentration of the emulsifier is 300 ppm. The plates are then incubated on a shaker at a temperature of 22° C. for 3–5 days, until sufficient growth can be observed in the untreated control. Evaluation is carried out photometrically at a wavelength of 620 nm. The dose of active compound which causes a 50% inhibition of fungal growths compared to the untreated control (ED50), is calculated from the data measured at different concentrations.

Septoria tritici = assay: as above; format: cell-based; conditions: 50% inhibition of fungal growth, tested at 0.1, 1, 10 and 100 ppm, 22° C., 3–5 days, photometric 620 nm
Procedure: as §1

chromatographic logP [1]	melting point	logP ([1]; pH 2.3, 0.1% aqueous phosphoric acid/acetonitrile gradient, listed as 2)	SMILES	pest or weed control at 10 g/ha (Sphaerotheca fuliginea)	pest or weed control at 100 g/ha (Botrytis cinerea)	pest or weed control at 10 g/ha (Venturia inaequalis)	ED50 (Rhizoctonia solani)	ED50 (Septoria tritici)
3.76			Cc1nc(C(F)(F)F)c(C(=O)Nc2ccccc2-c2ccc(F)c(C(F)(F)F)c2)s1 [Example 9]	90%				
3.61	139 to 141 °C		Cc1nc(C(F)(F)F)c(C(=O)Nc2ccccc2-c2ccc(Cl)c(F)c2)s1 [Example 7]	95%	92%	100%		
3.63			Cc1nc(C(F)(F)F)c(C(=O)Nc2ccccc2-c2cc(Cl)cc(Cl)c2)s1 [Example 14]			100%	< 0.1 ppm	0.32 ppm
			Cc1nc(C(F)(F)F)c(C(=O)Nc2ccccc2-c2ccc(C)c(Cl)c2)s1 [Example 18]		99%	100%		
2.79			Cc1nc(C(F)(F)F)c(C(=O)Nc2ccccc2Br)s1 [Example (IV-2), N-(2-bromophenyl)-2-methyl-4-(trifluoromethyl)-1,3-thiazol-5-carboxamide]					
3.01			Nc1ccccc1-c1ccc(F)c(Cl)c1 [Example (III-1), 3′-chloro-4′-fluoro-1,1′-biphenyl-2-amine]					
3.86			Cc1nc(C(F)(F)F)c(C(=O)Nc2ccccc2-c2ccc(Cl)cc2Cl)s1 [Example 17]	90%	87%			
4.03			Cc1nc(C(F)(F)F)c(C(=O)Nc2ccccc2-c2ccc(C)c(C(F)(F)F)c2)s1 [Example 12]	100%			< 0.1 ppm	3.16 ppm
3.58		3.60	Cc1nc(C(F)(F)F)c(C(=O)Nc2ccccc2-c2ccc(F)c(Cl)c2)s1 [Example 1, N-(3′-chloro-4′-fluoro-1,1′-biphenyl-2-yl)-2-methyl-4-(trifluoromethyl)-1,3-thiazol-5-carboxamide]	83%	82%	100%		
			Cc1nc(C(F)(F)F)c(C(=O)Nc2ccccc2-c2ccc(F)cc2)s1 [Example 3.37, reference compound]	20%	50%	32%	> 100 ppm	84.24 ppm
4.03			Cc1nc(C(F)(F)F)c(C(=O)Nc2ccccc2-c2ccc(Cl)c(C(F)(F)F)c2)s1 [Example 11]	100%		100%	< 0.1 ppm	1.42 ppm
3.21			Cc1nc(C(F)(F)F)c(C(=O)Nc2ccccc2-c2ccc(F)cc2F)s1 [Example 6]			99%		
2.81			Cc1nc(C(F)(F)F)c(C(=O)Nc2ccccc2I)s1 [Example (IV-1), N-(2-iodophenyl)-2-methyl-4-(trifluoromethyl)-1,3-thiazol-5-carboxamide]					
			Cc1nc(C(F)(F)F)c(C(=O)Nc2ccccc2-c2ccc(F)c(C)c2)s1 [Example 10]	98%	95%	100%	<0.1 <0.1 ppm	<0.1 <0.1 ppm
3.31	120 to 122 °C		Cc1nc(C(F)(F)F)c(C(=O)Nc2ccccc2-c2ccc(F)c(F)c2)s1 [Example 4]	90%		100%		
4.23			Cc1nc(C(F)(F)F)c(C(=O)Nc2ccccc2-c2ccc(Cl)cc2C)s1 [Example 16]				0.45 ppm	0.89 ppm
4.08			Cc1nc(C(F)(F)F)c(C(=O)Nc2ccccc2-c2ccc(OC(F)(F)F)c(C(F)(F)F)c2)s1 [Example 13]	85%				
3.52			Cc1nc(C(F)(F)F)c(C(=O)Nc2ccccc2-c2ccc(Cl)cc2F)s1 [Example 19]	81%	99%	100%		
3.35	133 to 134 °C		Cc1nc(C(F)(F)F)c(C(=O)Nc2ccccc2-c2cc(F)cc(F)c2)s1 [Example 5]			94%		
			Cc1nc(C(F)(F)F)c(C(=O)Nc2ccccc2-c2ccc(Cl)cc2)s1 [reference compound]	30%	76%	76%	>100>100 ppm	>100>100 ppm
